Source: ChEMBL document CHEMBL1141167, “Antitumor activity of new substituted 3-(5-imidazo[2,1-b]thiazolylmethylene)-2-indolinones and study of their effect on the cell cycle” (2005)
“And” between values parts separate entries of the source, which are not always exact repeats. Equal entries are not always repeated.

Assays:
[1] = tested on: Panel NCI-60 (60 carcinoma cell lines); assay: Total growth inhibition of human MG-MID cell line at 10E-4 M concentration; format: functional
Ovarian carcinoma cell [2] = assay: Total growth inhibition of human Ovarian cell line at 10E-4 M concentration; format: functional
NSCLC [3] = assay: Total growth inhibition of human NSCLC cell line at 10E-4 M concentration; format: functional
Breast carcinoma cell [4] = assay: Cytotoxic effect dissolved in DMSO against Breast cell line at 10E-4 M concentration; format: functional, Homo sapiens
Prostate cell [5] = assay: Total growth inhibition of human Prostate cell line at 10E-4 M concentration; format: functional
Colon cell [6] = assay: Cytotoxic effect dissolved in DMSO against Colon cell line at 10E-4 M concentration; format: functional, Homo sapiens
[7] = tested on: Panel NCI-60 (60 carcinoma cell lines); assay: Cytotoxic effect dissolved in DMSO against MG-MID cell line at 10E-4 M concentration; format: functional, Homo sapiens
Melanoma cell [8] = assay: Total growth inhibition of human Melanoma cell line at 10E-4 M concentration; format: functional
Melanoma cell [9] = assay: Cytotoxic effect dissolved in DMSO against Melanoma cell line at 10E-4 M concentration; format: functional, Homo sapiens
CNS cell = assay: Growth inhibitory concentration dissolved in DMSO against human CNS cell line at 10E-4 M concentration; format: functional
Colon cell [10] = assay: Growth inhibitory concentration dissolved in DMSO against human Colon cell line at 10E-4 M concentration; format: functional
Colon cell [11] = assay: Total growth inhibition of human Colon cell line at 10E-4 M concentration; format: functional; design: unit not given here
Ovarian carcinoma cell [12] = assay: Growth inhibitory concentration dissolved in DMSO against human Ovarian cell line at 10E-4 M concentration; format: functional
[13] = tested on: Panel NCI-60 (60 carcinoma cell lines); assay: Growth inhibitory concentration dissolved in DMSO against human MG-MID cell line at 10E-4 M concentration; format: functional
Ovarian carcinoma cell [14] = assay: Cytotoxic effect dissolved in DMSO against Ovarian cell line at 10E-4 M concentration; format: functional, Homo sapiens
Prostate cell [15] = assay: Growth inhibitory concentration dissolved in DMSO against human Prostate cell line at 10E-4 M concentration; format: functional
Melanoma cell [16] = assay: Growth inhibitory concentration dissolved in DMSO against human Melanoma cell line at 10E-4 M concentration; format: functional
NSCLC [17] = assay: Growth inhibitory concentration dissolved in DMSO against human NSCLC cell line at 10E-4 M concentration; format: functional; design: unit not given here
Breast carcinoma cell [18] = assay: Total growth inhibition of human Breast cell line at 10E-4 M concentration; format: functional
Renal cell = assay: Growth inhibitory concentration dissolved in DMSO against human Renal cell line at 10E-4 M concentration; format: functional; design: unit not given here
Breast carcinoma cell [19] = assay: Growth inhibitory concentration dissolved in DMSO against human Breast cell line at 10E-4 M concentration; format: functional

| Compound | pGI50 (-log GI50, M) (CNS cell) | pGI50 (negative log of molar GI50) (Colon cell [10]) | pGI50 (negative log of GI50 in M) (Ovarian carcinoma cell [12]) | GI50 [13] | pGI50 (negative log molar GI50) (Prostate cell [15]) | pGI50 (-log molar GI50) (Melanoma cell [16]) | GI50 (NSCLC [17]) | GI50 (Renal cell) | pGI50 (-log GI50, M) (Breast carcinoma cell [19]) | also measured |
| --- | --- | --- | --- | --- | --- | --- | --- | --- | --- | --- |
| COc1ccc2c(c1)/C(=C\c1c(C)nc3sc(C)cn13)C(=O)N2C | 5.46 | 5.49 | 5.16 | 5.35 | 5.06 | 5.26 | 5.11 | 5.32 | 5.6 | TGI [1]: 4.46; TGI (Ovarian carcinoma cell [2]): 4.42; TGI (NSCLC [3]): 4.4; LC50 (Breast carcinoma cell [4]): 4.03; TGI (Prostate cell [5]): 4.1; LC50 (Colon cell [6]): 4.09; LC50 [7]: 4.03; TGI (Melanoma cell [8]): 4.45; LC50 (Melanoma cell [9]): 4.13; TGI (Colon cell [11]): 4.55 and 4.59; LC50 (Ovarian carcinoma cell [14]): 4.02; TGI (Breast carcinoma cell [18]): 4.87 |
| COc1cc2c(cc1C)NC(=O)/C2=C/c1c(C)nc2sc(C)cn12 | 4.08 | 4.21 | 4.12 | 4.22 | 4.23 | 4.22 | 4.24 | 4.09 | 4.33 | – |
